# According to patent EP0620225B1, “Cephalosporin derivatives” (Basilea Pharmaceutica AG, priority 1993, dated 1994):
# Where a name gives a salt, the structure may show the parent alone.
# Columns and labels:
# Staph. aureus Smith = experiment: MIC, agar dilution method in Mueller Hinton agar; type: cell-based; conditions: Staphylococcus aureus, read-out: Minimum Inhibiting Concentration Values
# Procedure: (§1) In vitro activity was determined by minimum inhibitory concentration in a microorganism spectum by the agar dilution method in Mueller Hinton agar.
# Prot. vulgaris ATCC 6380 = experiment: MIC, agar dilution method in Mueller Hinton agar; type: cell-based; conditions: Proteus vulgaris, ATCC6380, read-out: Minimum Inhibiting Concentration Values
# Procedure: as §1
# Ps. aeruginosa 5712 = experiment: MIC, agar dilution method in Mueller Hinton agar; type: cell-based; conditions: Pseudomonas aeruginosa, read-out: Minimum Inhibiting Concentration Values
# Procedure: as §1
# E. coli ATCC 25922 = experiment: MIC, agar dilution method in Mueller Hinton agar; type: cell-based; conditions: Escherichia coli, ATCC25922, read-out: Minimum Inhibiting Concentration Values
# Procedure: as §1
# Str. pyogenes 4 = experiment: MIC, agar dilution method in Mueller Hinton agar; type: cell-based; conditions: Streptococcus pyogenes, read-out: Minimum Inhibiting Concentration Values
# Procedure: as §1
# E. coli TEM-1 = experiment: MIC, agar dilution method in Mueller Hinton agar; type: cell-based; conditions: Escherichia coli, TEM1, read-out: Minimum Inhibiting Concentration Values
# Procedure: as §1
# Str. pneumoniae 6301 = experiment: MIC, agar dilution method in Mueller Hinton agar; type: cell-based; conditions: Streptococcus pneumoniae, 6301, read-out: Minimum Inhibiting Concentration Values
# Procedure: as §1
# Staph. aureus ATCC 29213 = experiment: MIC, agar dilution method in Mueller Hinton agar; type: cell-based; conditions: Staphylococcus aureus, ATCC29213, read-out: Minimum Inhibiting Concentration Values
# Procedure: as §1
# [1] = tested on: Ps. aeruginosa ATCC 27853; experiment: MIC, agar dilution method in Mueller Hinton agar; type: cell-based; conditions: Pseudomonas aeruginosa, ATCC27853, read-out: Minimum Inhibiting Concentration Values
# Procedure: as §1
# Escherichia coli 25922 = experiment: Efficacy against systemic infections (septicemia) in mice; type: in vivo; conditions: 96 h, survival day 4
# In short: (§2)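 Swiss albino mice (16–20 g) infected i.p. with 4–10× the 48-h LD50 of each strain; compound given p.o. or s.c. at 1 and 3 h post-challenge, plus 5 h for P. aeruginosa BA. Five mice per group; ED50 (mg/kg) by probit analysis of day-4 survival.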
# [2] = tested on: Streptococcus pyogenes 15; experiment: as above; type: in vivo; conditions: 96 h, Streptococcus pyogenes 15, po (orally) 1 and 3 h after challenge, survival day 4
# In short: as §2
# [3] = tested on: Pseudomonas aeruginosa BA; experiment: as above; type: in vivo; conditions: 96 h, sc (subcutaneous) 1, 3 and 5 h after challenge, survival day 4
# In short: as §2
# S.viridans group = experiment: In vitro activity against selected species (MIC50, MIC90, range); type: cell-based; conditions: Streptococcus viridans
# S.aureus Smith = experiment: Efficacy against systemic infections (septicemia) in mice; type: in vivo; conditions: Staphylococcus aureus, 96 h, sc 1 and 3 h after challenge, survival day 4
# In short: as §2
# S.pneumoniae PEN-R = experiment: In vitro activity against selected species (MIC50, MIC90, range); type: cell-based; conditions: Streptococcus pneumoniae; for MIC: MIC range
# E.faecium = experiment: In vitro activity against selected species (MIC50, range); type: cell-based; conditions: Enterococcus faecium, medium MHA
# Procedure: as §1
# E.faecalis [4] = experiment: In vitro activity against selected species (MIC50, MIC90, range); type: cell-based; conditions: Enterococcus faecalis, medium MHA
# Procedure: as §1
# S.aureus MRSA = experiment: as above; type: cell-based; conditions: Staphylococcus aureus, medium MHA (Mueller Hinton Agar) +NaCl
# Procedure: as §1
# P.asaccharolyticus 29743 = experiment: Antibacterial spectrum (MIC), agar dilution; type: cell-based; conditions: Peptoniphilus asaccharolyticus, read-out: MIC
# Procedure: as §1
# E.faecalis 6 = experiment: Antibacterial spectrum (MIC), agar dilution; type: cell-based; conditions: Enterococcus faecalis, read-out: MIC
# Procedure: as §1
# K.pneumoniae 418 = experiment: Antibacterial spectrum (MIC), agar dilution; type: cell-based; conditions: Klebsiella pneumoniae, read-out: MIC
# Procedure: as §1
# S.viridans group 016 = experiment: Antibacterial spectrum (MIC), agar dilution; type: cell-based; conditions: Streptococcus viridans, read-out: MIC
# Procedure: as §1
# C.difficile ZH1 = experiment: Antibacterial spectrum (MIC), agar dilution; type: cell-based; conditions: Clostridioides difficile, read-out: MIC
# Procedure: as §1
# P.mirabilis 2117 = experiment: Antibacterial spectrum (MIC), agar dilution; type: cell-based; conditions: Proteus mirabilis, read-out: MIC
# Procedure: as §1
# C.freundii 902 = experiment: Antibacterial spectrum (MIC), agar dilution; type: cell-based; conditions: Citrobacter freundii, read-out: MIC
# Procedure: as §1
# L.monocytogenes BK23 = experiment: Antibacterial spectrum (MIC), agar dilution; type: cell-based; conditions: Listeria monocytogenes, read-out: MIC
# Procedure: as §1
# M.catarrhalis RA21 = experiment: Antibacterial spectrum (MIC), agar dilution; type: cell-based; conditions: Moraxella catarrhalis, read-out: MIC
# Procedure: as §1
# P.aeruginosa 27853 = experiment: Antibacterial spectrum (MIC), agar dilution; type: cell-based; conditions: Pseudomonas aeruginosa, read-out: MIC
# Procedure: as §1
# H.influenzae 1 = experiment: Antibacterial spectrum (MIC), agar dilution; type: cell-based; conditions: Haemophilus influenzae, read-out: MIC
# Procedure: as §1
# S.pneumoniae Q19 = experiment: Antibacterial spectrum (MIC), agar dilution; type: cell-based; conditions: Streptococcus pneumoniae, read-out: MIC
# Procedure: as §1
# S.agalactiae QK44 = experiment: Antibacterial spectrum (MIC), agar dilution; type: cell-based; conditions: Streptococcus agalactiae, read-out: MIC
# Procedure: as §1
# B.fragilis ATCC25285 = experiment: Antibacterial spectrum (MIC), agar dilution; type: cell-based; conditions: Bacteroides fragilis, read-out: MIC
# Procedure: as §1
# S.marcescens 69438 = experiment: Antibacterial spectrum (MIC), agar dilution; type: cell-based; conditions: Serratia marcescens, read-out: MIC
# Procedure: as §1
# S.aureus 734 MRSA = experiment: Antibacterial spectrum (MIC), agar dilution; type: cell-based; conditions: Staphylococcus aureus, read-out: MIC
# Procedure: as §1
# X.maltophilia 1AC739 = experiment: Antibacterial spectrum (MIC), agar dilution; type: cell-based; conditions: Stenotrophomonas maltophilia, read-out: MIC
# Procedure: as §1
# C.freundii 43 = experiment: Antibacterial spectrum (MIC), agar dilution; type: cell-based; conditions: Citrobacter freundii, read-out: MIC
# Procedure: as §1
# P.vulgaris 1028 = experiment: Antibacterial spectrum (MIC), agar dilution; type: cell-based; conditions: Proteus vulgaris, read-out: MIC
# Procedure: as §1
# E.coli 25922 = experiment: Antibacterial spectrum (MIC), agar dilution; type: cell-based; conditions: Escherichia coli, read-out: MIC
# Procedure: as §1
# S.pyogenes B15 = experiment: Antibacterial spectrum (MIC), agar dilution; type: cell-based; conditions: Streptococcus pyogenes, read-out: MIC
# Procedure: as §1
# Acinetobacter sp.51-156 = experiment: Antibacterial spectrum (MIC), agar dilution; type: cell-based; conditions: SP.51156, read-out: MIC
# Procedure: as §1
# M.morganii 6H-137 = experiment: Antibacterial spectrum (MIC), agar dilution; type: cell-based; conditions: Morganella morganii, 6H137, read-out: MIC
# Procedure: as §1
# E.cloacae 908R = experiment: Antibacterial spectrum (MIC), agar dilution; type: cell-based; conditions: Enterobacter cloacae, read-out: MIC
# Procedure: as §1
# S.aureus 6538 = experiment: Antibacterial spectrum (MIC), agar dilution; type: cell-based; conditions: Staphylococcus aureus, read-out: MIC
# Procedure: as §1
# N.meningitidis 69480 = experiment: Antibacterial spectrum (MIC), agar dilution; type: cell-based; conditions: Neisseria meningitidis, read-out: MIC
# Procedure: as §1
# E.cloacae 908SSi = experiment: Antibacterial spectrum (MIC), agar dilution; type: cell-based; conditions: Enterobacter cloacae, read-out: MIC
# Procedure: as §1
# E.faecalis [5] = experiment: In vitro activity against selected species (MIC50, MIC90, range); type: cell-based; conditions: Enterococcus faecalis, medium IsoB
# M.catarrhalis = experiment: as above; type: cell-based; conditions: Moraxella catarrhalis, medium IsoB
# S.aureus MSSA = experiment: as above; type: cell-based; conditions: Staphylococcus aureus, medium MHB (Mueller Hinton Broth)
# [6] = Escherichia coli 25922, po (orally) 1 and 3 h after challenge
# [7] = medium IsoB (Isosensitest Broth)
smiles,measurement,setting,value
"Nc1nc(/C(=N/OCC(=O)O)C(=O)N[C@@H]2C(=O)N3C(C(=O)O)=C(/C=C4\CCN(CC(F)(F)F)C4=O)CS[C@H]23)cs1 [A, [6R-[3(E),6α,7β(Z)]]-7-[[(2-Amino-4-thiazolyl)[(carboxy-methoxy)imino]-acetyl]amino]-3-[[1-(2,2,2-trifluoroethyl)-2-oxo-3-pyrrolidinylidene]-methyl]-8-oxo-5-thia-1-aza-bicyclo[4.2.0]oct-2-ene-2-carboxylic acid disodium salt]",MIC,Staph. aureus Smith,8 µg/mL
same,MIC,Prot. vulgaris ATCC 6380,≤ 0.0156 µg/mL
same,MIC,Ps. aeruginosa 5712,8 µg/mL
same,MIC,E. coli ATCC 25922,0.0625 µg/mL
same,MIC,Str. pyogenes 4,0.125 µg/mL
same,MIC,E. coli TEM-1,0.0625 µg/mL
same,MIC,Str. pneumoniae 6301,0.0625 µg/mL
same,MIC,Staph. aureus ATCC 29213,16 µg/mL
same,MIC,[1],8 µg/mL
same,ED50,Escherichia coli 25922; [6],< 0.1 mg/kg
same,ED50,[2],> 0.8 mg/kg
same,ED50,[3],12 mg/kg
"Nc1nc(/C(=N/OCC(=O)O)C(=O)N[C@@H]2C(=O)N3C(C(=O)O)=C(/C=C4\CCN(CCF)C4=O)CS[C@H]23)cs1 [B, [6R-[3(E),6α,7β(Z)]]-7-[[(2-Amino-4-thiazolyl)[(carboxy-methoxy)imino]-acetyl]amino]-3-[[1-(2-fluoroethyl)-2-oxo-3-pyrrolidinylidene]methyl]-8-oxo-5-thia-1-azabicyclo[4.2.0]-oct-2-ene-2-carboxylic acid disodium salt]",MIC,Staph. aureus Smith,8 µg/mL
same,MIC,Prot. vulgaris ATCC 6380,≤ 0.0156 µg/mL
same,MIC,Ps. aeruginosa 5712,4 µg/mL
same,MIC,E. coli ATCC 25922,0.0313 µg/mL
same,MIC,Str. pyogenes 4,0.125 µg/mL
same,MIC,E. coli TEM-1,0.0313 µg/mL
same,MIC,Str. pneumoniae 6301,0.0313 µg/mL
same,MIC,Staph. aureus ATCC 29213,16 µg/mL
same,MIC,[1],4 µg/mL
same,ED50,Escherichia coli 25922; [6],< 0.1 mg/kg
same,ED50,[2],0.5 mg/kg
same,ED50,[3],3.5 mg/kg
"C=CC1=C(C(=O)O)N2C(=O)[C@@H](NC(=O)/C(=N\OCC(=O)O)c3csc(N)n3)[C@H]2SC1 [Cefixime, reference compound]",ED50,Escherichia coli 25922; [6],0.5 mg/kg
same,ED50,[2],2 mg/kg
"Nc1nc(/C(=N/O)C(=O)N[C@@H]2C(=O)N3C(C(=O)O)=C(/C=C4\CCN(CC(F)(F)F)C4=O)CS[C@H]23)cs1 [E, [6R-[3(E),6α,7β(Z)]]-7-[[(2-Amino-4-thiazolyl)(hydroxyimino)-acetyl]amino]-3-[[1-(2,2,2-trifluoroethyl)-2-oxo-3-pyrrolidinylidene]-methyl]-8-oxo-5-thia-1-azabicyclo[4.2.0]oct-2-ene-2-carboxylic acid]",MIC50,S.viridans group,2 µg/mL
same,MIC90,S.viridans group,2 µg/mL
same,MIC,S.viridans group; MIC range,0.12 to 4 µg/mL
same,ED50,Escherichia coli 25922; [6],3 mg/kg
same,ED50,"Escherichia coli 25922; Escherichia coli, E.coli 25922, sc 1 and 3 h after challenge",0.07 mg/kg
same,ED50,S.aureus Smith,< 1 mg/kg
same,MIC,S.pneumoniae PEN-R; [7],0.12 to 0.5 µg/mL
same,MIC,S.pneumoniae PEN-R; medium IsoB + 20% serum,0.25 to 0.5 µg/mL
same,MIC50,S.pneumoniae PEN-R; [7],0.25 µg/mL
same,MIC90,S.pneumoniae PEN-R; [7],0.5 µg/mL
same,MIC50,S.pneumoniae PEN-R; medium IsoB + 20% serum,0.5 µg/mL
same,MIC,E.faecium; MIC range,1 to 16 µg/mL
same,MIC50,E.faecium,4 µg/mL
same,MIC,E.faecalis [4]; MIC range,1 to 2 µg/mL
same,MIC50,E.faecalis [4],1 µg/mL
same,MIC90,E.faecalis [4],2 µg/mL
same,MIC,S.aureus MRSA; MIC range,8 to 16 µg/mL
same,MIC50,S.aureus MRSA,8 µg/mL
same,MIC90,S.aureus MRSA,8 µg/mL
same,MIC,P.asaccharolyticus 29743,≤ 0.12 µg/mL
same,MIC,E.faecalis 6,1 µg/mL
same,MIC,K.pneumoniae 418,0.12 µg/mL
same,MIC,S.viridans group 016,1 µg/mL
same,MIC,C.difficile ZH1,8 µg/mL
same,MIC,P.mirabilis 2117,≤ 0.06 µg/mL
same,MIC,C.freundii 902,0.12 µg/mL
same,MIC,L.monocytogenes BK23,4 µg/mL
same,MIC,M.catarrhalis RA21,16 µg/mL
same,MIC,P.aeruginosa 27853,16 µg/mL
same,MIC,H.influenzae 1,0.25 µg/mL
same,MIC,S.pneumoniae Q19,≤ 0.06 µg/mL
same,MIC,S.agalactiae QK44,0.25 µg/mL
same,MIC,B.fragilis ATCC25285,8 µg/mL
same,MIC,S.marcescens 69438,1 µg/mL
same,MIC,S.aureus 734 MRSA,8 µg/mL
same,MIC,X.maltophilia 1AC739,> 32 µg/mL
same,MIC,C.freundii 43,4 µg/mL
same,MIC,P.vulgaris 1028,1 µg/mL
same,MIC,E.coli 25922,0.12 µg/mL
same,MIC,S.pyogenes B15,≤ 0.06 µg/mL
same,MIC,Acinetobacter sp.51-156,16 µg/mL
same,MIC,M.morganii 6H-137,≤ 0.06 µg/mL
same,MIC,E.cloacae 908R,16 µg/mL
same,MIC,S.aureus 6538,0.5 µg/mL
same,MIC,N.meningitidis 69480,≤ 0.06 µg/mL
same,MIC,E.cloacae 908SSi,0.25 µg/mL
same,MIC,E.faecalis [5]; MIC range,0.25 to 2 µg/mL
same,MIC50,E.faecalis [5],0.5 µg/mL
same,MIC90,E.faecalis [5],2 µg/mL
same,MIC,M.catarrhalis; MIC range,1 to 16 µg/mL
same,MIC50,M.catarrhalis,4 µg/mL
same,MIC90,M.catarrhalis,16 µg/mL
same,MIC,S.aureus MSSA; MIC range,0.5 to 1 µg/mL
same,MIC50,S.aureus MSSA,1 µg/mL
same,MIC90,S.aureus MSSA,1 µg/mL
